The source made the active and inactive calls. The calls are words filed in the database; no cut-off is given here.
Tests used:
[1] = biological target: T1, ALK tyrosine kinase receptor (Homo sapiens, UniProt Q9UM73)
Target sequence in this assay (Q9UM73 whole entry, the tested form may be a part): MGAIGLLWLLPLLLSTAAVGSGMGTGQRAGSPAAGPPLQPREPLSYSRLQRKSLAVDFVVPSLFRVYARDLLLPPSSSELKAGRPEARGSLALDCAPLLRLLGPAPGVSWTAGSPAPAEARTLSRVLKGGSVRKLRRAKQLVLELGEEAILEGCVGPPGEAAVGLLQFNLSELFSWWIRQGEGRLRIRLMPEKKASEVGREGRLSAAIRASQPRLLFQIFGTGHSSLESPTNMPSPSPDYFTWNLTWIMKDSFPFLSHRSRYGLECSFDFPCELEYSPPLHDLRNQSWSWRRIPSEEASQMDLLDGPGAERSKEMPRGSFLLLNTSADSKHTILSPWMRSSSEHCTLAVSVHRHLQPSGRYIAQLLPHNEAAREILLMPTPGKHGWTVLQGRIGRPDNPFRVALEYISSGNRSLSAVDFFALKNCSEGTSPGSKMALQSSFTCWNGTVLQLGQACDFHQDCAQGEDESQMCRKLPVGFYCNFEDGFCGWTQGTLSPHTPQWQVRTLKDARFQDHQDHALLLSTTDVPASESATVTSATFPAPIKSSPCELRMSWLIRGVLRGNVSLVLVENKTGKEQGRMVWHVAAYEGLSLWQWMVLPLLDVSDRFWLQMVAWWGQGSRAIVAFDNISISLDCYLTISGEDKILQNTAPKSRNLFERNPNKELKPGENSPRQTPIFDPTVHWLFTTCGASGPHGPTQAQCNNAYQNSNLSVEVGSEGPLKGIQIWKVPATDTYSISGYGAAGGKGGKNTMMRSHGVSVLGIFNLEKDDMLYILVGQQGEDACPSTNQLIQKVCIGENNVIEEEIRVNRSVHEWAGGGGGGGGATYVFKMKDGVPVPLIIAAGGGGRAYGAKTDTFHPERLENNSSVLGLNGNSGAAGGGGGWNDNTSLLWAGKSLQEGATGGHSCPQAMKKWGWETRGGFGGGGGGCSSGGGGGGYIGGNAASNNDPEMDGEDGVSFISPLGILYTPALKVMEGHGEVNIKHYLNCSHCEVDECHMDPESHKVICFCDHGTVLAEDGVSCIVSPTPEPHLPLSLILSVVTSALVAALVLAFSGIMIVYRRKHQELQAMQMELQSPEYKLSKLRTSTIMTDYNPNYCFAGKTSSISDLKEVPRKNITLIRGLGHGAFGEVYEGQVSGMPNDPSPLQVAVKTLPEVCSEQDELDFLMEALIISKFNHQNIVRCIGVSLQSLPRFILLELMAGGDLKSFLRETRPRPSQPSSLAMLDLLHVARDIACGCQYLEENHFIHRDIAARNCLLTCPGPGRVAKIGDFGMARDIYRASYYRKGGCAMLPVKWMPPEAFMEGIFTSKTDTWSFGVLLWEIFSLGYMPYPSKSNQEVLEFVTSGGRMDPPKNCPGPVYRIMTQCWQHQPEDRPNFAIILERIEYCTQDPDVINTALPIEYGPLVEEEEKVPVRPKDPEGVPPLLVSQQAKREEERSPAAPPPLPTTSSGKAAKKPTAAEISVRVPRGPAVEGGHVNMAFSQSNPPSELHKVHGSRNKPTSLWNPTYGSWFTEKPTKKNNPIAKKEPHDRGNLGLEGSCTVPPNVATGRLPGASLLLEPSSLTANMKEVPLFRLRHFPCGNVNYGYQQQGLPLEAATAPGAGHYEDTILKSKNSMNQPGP

[2] = biological target: T2, Protein cereblon/ALK tyrosine kinase receptor/Echinoderm microtubule-associated protein-like 4 (Homo sapiens) (UniProt Q9UM73+Q9HC35+Q96SW2); assay: Protac activity at CRBN/EML4-ALK in human NCI-H3122 cells assessed as induction of EML4-ALK fusion protein degradation at 0.1 uM incubated for 16 hrs by Western blot analysis relative to control; assay type: cell-based
[3] = biological target: T3, Protein cereblon/ALK tyrosine kinase receptor/Nucleophosmin (Homo sapiens) (UniProt Q9UM73+P06748+Q96SW2); assay: Protac activity at CRBN/NPM-ALK in human KARPAS-299 cells assessed as induction of NPM-ALK fusion protein degradation at 1 uM incubated for 24 hrs by Western blot analysis relative to control; assay type: cell-based
[4] = biological target: T3, Protein cereblon/ALK tyrosine kinase receptor/Nucleophosmin (Homo sapiens); assay: Protac activity at CRBN/NPM-ALK in human KARPAS-299 cells assessed as induction of NPM-ALK fusion protein degradation at 0.1 uM incubated for 24 hrs by Western blot analysis relative to control; assay type: cell-based
[5] = biological target: Protein cereblon/ALK tyrosine kinase receptor/Echinoderm microtubule-associated protein-like 4 (Homo sapiens, UniProt Q96SW2+Q9HC35+Q9UM73); assay: Protac activity at CRBN/EML4-ALK in human NCI-H3122 cells assessed as induction of EML4-ALK fusion protein degradation incubated for 16 hrs by Western blot analysis; assay type: cell-based
[6] = biological target: Protein cereblon/ALK tyrosine kinase receptor/Nucleophosmin (Homo sapiens, UniProt P06748+Q96SW2+Q9UM73); assay: Protac activity at CRBN/NPM-ALK in human KARPAS-299 cells assessed as induction of NPM-ALK fusion protein degradation incubated for 48 hrs by Western blot analysis; assay type: cell-based
[7] = biological target: T2, Protein cereblon/ALK tyrosine kinase receptor/Echinoderm microtubule-associated protein-like 4 (Homo sapiens); assay: Protac activity at CRBN/EML4-ALK in human NCI-H3122 cells assessed as induction of EML4-ALK fusion protein degradation at 0.25 uM incubated for 16 hrs by Western blot analysis; assay type: cell-based
[8] = biological target: T2, Protein cereblon/ALK tyrosine kinase receptor/Echinoderm microtubule-associated protein-like 4 (Homo sapiens); assay: Protac activity at CRBN/EML4-ALK in human NCI-H3122 cells assessed as reduction in EML4-ALK fusion protein level at 100 nM measured after 16 hrs by Western blot analysis relative to control; assay type: cell-based; parameters: scale not given: the % may be the effect or the level left
[9] = biological target: T1, ALK tyrosine kinase receptor; assay: Inhibition of ALK phosphorylation in human KARPAS-299 cells at 1 uM incubated for 24 hrs followed by compound washout and measured after 72 hrs by Western blot analysis; assay type: cell-based
[10] = Half life in Sprague-Dawley rat at 1 mg/kg, iv administered as single dose measured for 24 hrs by LC-MS/MS analysis; assay type: ADME, organism-based; settings: in vivo
[11] = Half life in Sprague-Dawley rat at 50 mg/kg, ip administered as single dose measured for 24 hrs by LC-MS/MS analysis; assay type: ADME, organism-based; settings: in vivo
[12] = Cmax in Sprague-Dawley rat at 50 mg/kg, ip administered as single dose measured for 24 hrs by LC-MS/MS analysis; assay type: ADME, organism-based; parameters: dose 50 mg/kg, time 24 hrs, route ip; settings: in vivo
[13] = AUC (0 to t) in Sprague-Dawley rat at 50 mg/kg, ip administered as single dose measured for 24 hrs by LC-MS/MS analysis; assay type: ADME, organism-based; parameters: dose 50 mg/kg, time 24 hrs, route ip; settings: in vivo
[14] = MRTlast in Sprague-Dawley rat at 1 mg/kg, iv administered as single dose measured for 24 hrs by LC-MS/MS analysis; assay type: ADME, organism-based; settings: in vivo
[15] = In vivo induction of degradation of ALK in human KARPAS-299 cells xenografted in NCG mouse assessed as reduction in ALK protein expression in tumor at 10 mg/kg, iv administered as single dose measured after 12 hrs by immunoblot analysis relative to control; assay type: functional; parameters: scale not given: the % may be the effect or the level left
KARPAS-299 [16] = assay: Antitumor activity against human KARPAS-299 cells xenografted in NCG mouse assessed as reduction in tumor volume at 25 to 50 mg/kg, ip administered once every day for 3 weeks and measured every 3 days; assay type: functional, organism-based; settings: dose 25-50 mg/kg
KARPAS-299 [17] = assay: Antitumor activity against human KARPAS-299 cells xenografted in NCG mouse assessed as tumor growth inhibition at 10 mg/kg, iv administered once every day for 3 weeks and measured every 3 days relative to control; assay type: functional; settings: KARPAS-299, 504 h, read-out: TGI
[18] = Toxicity in NCG mouse xenografted with human KARPAS-299 cells assessed as body weight loss at 10 mg/kg, iv administered once every day for 3 weeks; assay type: organism-based; settings: in vivo, 504 h
[19] = Toxicity in NCG mouse xenografted with human KARPAS-299 cells assessed as heart damage at 10 mg/kg, iv administered once every day for 3 weeks by H & E staining based analysis; assay type: organism-based; settings: in vivo, 504 h
[20] = Toxicity in NCG mouse xenografted with human KARPAS-299 cells assessed as liver damage at 10 mg/kg, iv administered once every day for 3 weeks by H and E staining based analysis; assay type: organism-based; settings: in vivo, 504 h
[21] = Toxicity in NCG mouse xenografted with human KARPAS-299 cells assessed as lung damage at 10 mg/kg, iv administered once every day for 3 weeks by H and E staining based analysis; assay type: organism-based; settings: in vivo, 504 h
KARPAS-299 [22] = assay: Antitumor activity against human KARPAS-299 cells xenografted in NCG mouse assessed as increase in ALK protein degradation at 5 to 10 mg/kg, iv administered once every day for 3 weeks; assay type: functional, organism-based; settings: dose 5-10 mg/kg
BaF3 = assay: Antiproliferative activity against mouse BaF3 cells expressing wild type EML-ALK assessed as cell viability at 1 uM incubated for 72 hrs by Celltitre-Glo assay relative to control; assay type: functional; settings: read-out: Activity
KARPAS-299 [23] = assay: Downregulation of SOCS3 protein expression in human KARPAS-299 cells at 1 uM incubated for 24 hrs by iTRAQ proteomics analysis; assay type: functional, cell-based

T2 sequence (Q96SW2 whole entry partner, the tested form may be a part): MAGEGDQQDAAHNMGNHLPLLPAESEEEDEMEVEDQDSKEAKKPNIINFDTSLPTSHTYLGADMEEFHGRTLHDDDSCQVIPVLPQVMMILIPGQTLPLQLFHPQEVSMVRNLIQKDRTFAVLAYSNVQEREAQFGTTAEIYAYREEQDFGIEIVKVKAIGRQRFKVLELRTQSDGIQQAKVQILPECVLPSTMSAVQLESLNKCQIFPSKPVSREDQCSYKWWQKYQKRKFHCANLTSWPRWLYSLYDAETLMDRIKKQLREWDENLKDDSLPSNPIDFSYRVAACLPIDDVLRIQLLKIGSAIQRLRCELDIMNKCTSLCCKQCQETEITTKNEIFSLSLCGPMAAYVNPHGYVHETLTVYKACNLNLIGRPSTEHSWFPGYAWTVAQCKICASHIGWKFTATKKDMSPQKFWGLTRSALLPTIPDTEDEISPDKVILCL
T2 sequence (Q9HC35 whole entry partner, the tested form may be a part): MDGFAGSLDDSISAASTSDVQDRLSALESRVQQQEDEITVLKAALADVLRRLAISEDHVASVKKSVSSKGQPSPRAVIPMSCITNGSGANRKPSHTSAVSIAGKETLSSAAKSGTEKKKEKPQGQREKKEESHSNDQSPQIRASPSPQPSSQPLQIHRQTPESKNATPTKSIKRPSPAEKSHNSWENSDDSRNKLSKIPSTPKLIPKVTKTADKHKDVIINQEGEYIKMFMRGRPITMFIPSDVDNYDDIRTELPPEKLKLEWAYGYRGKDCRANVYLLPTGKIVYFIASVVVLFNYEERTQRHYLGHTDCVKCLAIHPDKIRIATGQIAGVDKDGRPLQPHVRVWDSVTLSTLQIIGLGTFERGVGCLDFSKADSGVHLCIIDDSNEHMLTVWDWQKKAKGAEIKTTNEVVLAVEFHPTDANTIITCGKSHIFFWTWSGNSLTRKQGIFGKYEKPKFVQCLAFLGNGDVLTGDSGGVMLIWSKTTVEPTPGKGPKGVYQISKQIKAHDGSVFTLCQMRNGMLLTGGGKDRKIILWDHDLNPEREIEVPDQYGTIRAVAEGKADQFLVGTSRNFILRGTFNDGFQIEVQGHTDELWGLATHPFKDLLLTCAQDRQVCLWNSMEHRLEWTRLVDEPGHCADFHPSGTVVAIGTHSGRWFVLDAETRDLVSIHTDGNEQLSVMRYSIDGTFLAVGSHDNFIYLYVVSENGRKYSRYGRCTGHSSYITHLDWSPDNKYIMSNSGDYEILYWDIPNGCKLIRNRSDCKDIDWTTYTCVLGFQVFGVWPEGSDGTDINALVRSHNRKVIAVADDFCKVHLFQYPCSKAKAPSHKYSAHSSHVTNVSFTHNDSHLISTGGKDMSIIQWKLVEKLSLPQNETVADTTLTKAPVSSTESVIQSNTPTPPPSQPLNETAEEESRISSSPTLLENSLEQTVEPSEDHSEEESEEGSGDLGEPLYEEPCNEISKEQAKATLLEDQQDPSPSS
T2 sequence (Q9UM73 19-1620 limits assumed): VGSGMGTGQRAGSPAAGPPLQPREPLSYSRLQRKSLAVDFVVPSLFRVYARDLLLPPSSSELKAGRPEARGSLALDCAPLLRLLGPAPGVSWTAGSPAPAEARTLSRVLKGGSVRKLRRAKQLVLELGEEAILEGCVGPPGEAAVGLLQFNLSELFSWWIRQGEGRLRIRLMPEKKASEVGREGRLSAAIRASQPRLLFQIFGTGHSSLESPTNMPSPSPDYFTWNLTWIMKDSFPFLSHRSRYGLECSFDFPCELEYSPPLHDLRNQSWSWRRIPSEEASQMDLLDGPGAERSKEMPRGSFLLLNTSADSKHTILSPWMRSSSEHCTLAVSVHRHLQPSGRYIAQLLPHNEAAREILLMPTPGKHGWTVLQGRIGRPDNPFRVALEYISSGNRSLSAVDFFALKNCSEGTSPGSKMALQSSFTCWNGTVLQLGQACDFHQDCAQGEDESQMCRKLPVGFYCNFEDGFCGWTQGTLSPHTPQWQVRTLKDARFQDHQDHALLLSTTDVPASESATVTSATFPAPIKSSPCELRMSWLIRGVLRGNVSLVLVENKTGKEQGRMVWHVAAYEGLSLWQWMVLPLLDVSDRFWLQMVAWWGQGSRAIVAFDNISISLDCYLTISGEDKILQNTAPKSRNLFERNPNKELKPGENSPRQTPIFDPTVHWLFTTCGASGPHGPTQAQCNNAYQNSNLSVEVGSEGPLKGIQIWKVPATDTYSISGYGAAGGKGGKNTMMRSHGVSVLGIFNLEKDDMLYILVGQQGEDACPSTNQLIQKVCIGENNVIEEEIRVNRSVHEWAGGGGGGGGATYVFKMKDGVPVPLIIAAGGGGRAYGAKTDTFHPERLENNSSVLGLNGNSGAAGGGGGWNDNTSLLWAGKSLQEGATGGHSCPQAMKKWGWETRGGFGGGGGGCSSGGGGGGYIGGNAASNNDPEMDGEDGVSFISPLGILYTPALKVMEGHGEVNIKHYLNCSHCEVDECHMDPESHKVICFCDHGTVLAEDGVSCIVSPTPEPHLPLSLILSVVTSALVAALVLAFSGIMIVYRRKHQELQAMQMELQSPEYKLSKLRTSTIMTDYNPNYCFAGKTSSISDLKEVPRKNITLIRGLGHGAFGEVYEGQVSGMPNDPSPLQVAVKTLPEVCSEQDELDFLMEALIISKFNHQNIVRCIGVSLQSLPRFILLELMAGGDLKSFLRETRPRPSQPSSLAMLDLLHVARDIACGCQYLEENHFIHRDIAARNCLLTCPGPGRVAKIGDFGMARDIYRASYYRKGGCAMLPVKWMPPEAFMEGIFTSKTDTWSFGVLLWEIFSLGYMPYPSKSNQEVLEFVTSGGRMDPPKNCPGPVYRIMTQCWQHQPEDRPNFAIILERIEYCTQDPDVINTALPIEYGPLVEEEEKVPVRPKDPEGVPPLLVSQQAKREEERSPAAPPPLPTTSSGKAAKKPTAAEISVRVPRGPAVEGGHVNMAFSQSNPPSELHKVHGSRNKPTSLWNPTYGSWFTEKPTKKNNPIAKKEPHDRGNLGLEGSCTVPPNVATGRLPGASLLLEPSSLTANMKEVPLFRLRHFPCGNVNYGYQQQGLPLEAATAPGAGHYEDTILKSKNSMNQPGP

CCc1cc2c(cc1N1CCN(C(=O)CNc3cccc4c3C(=O)N(C3CCC(=O)NC3=O)C4=O)CC1)C(C)(C)c1[nH]c3cc(C#N)ccc3c1C2=O (centres undefined)
IC50 [1]: 13.6 µM | Activity [2]: 50.3% | Activity [3]: 85% | Activity [4]: 8.6% | EC50 [5]: 27.4 nM | EC50 [6]: 116 nM | Activity [7]: Active | Activity [8]: 22.6% | inhibition [9]: Active | half-life [10]: 25.2 min | half-life [11]: 1830 min | Cmax [12]: 109 ng/mL | AUC(0-t) at 24 h [13]: 546 ng·h/mL | MRT last at 24 h [14]: 4.2 min | Activity [15]: >85% | Activity (KARPAS-299 [16]): Active | inhibition in vivo at 10 mg/kg (KARPAS-299 [17]): 75.8% | Activity [18]: Non-Toxic | Activity [19]: Non-Toxic | Activity [20]: Non-Toxic | Activity [21]: Non-Toxic | Activity (KARPAS-299 [22]): Active | viability at 1 µM (BaF3): 0.1% | Activity (KARPAS-299 [23]): Active

Source: ChEMBL document CHEMBL5096194, “Development of Alectinib-Based PROTACs as Novel Potent Degraders of Anaplastic Lymphoma Kinase (ALK)” (J Med Chem, 2021)
